Source: patent publication US7312196B2, “Formulations for amylin agonist peptides” (Amylin Pharmaceuticals, Inc., priority 1998, dated 2007)

Columns and labels:
Assay type in all cases: physicochemical
[1] = adsorption onto glass container in liquid form
From the text: However, with regard to amylin agonists or amylins which do have such a tendency when in liquid form, a surfactant should be used in their formulation. These formulations may then be lyophilized. Surfactants frequently cause denaturation of protein, both of hydrophobic disruption and by salt bridge separation. Relatively low concentrations of surfactant may exert a potent denaturing activity, because of the strong interactions between surfactant moieties and the reactive sites on proteins. However, judicious use of this interaction can stabilize proteins against interfacial or surface denaturation. Surfactants which could further stabilize the peptide may optionally be present in the range of about 0.001 to 0.3% (w/v) of the total formulation and include polysorbate 80 (i.e., polyoxyethylene(20) sorbitan monooleate), CHAPS® (i.e., 3-[(3-cholamidopropyl) dimethylammonio] 1-propanesulfonate), Brij® (e.g., Brij 35, which is (polyoxyethylene (23) lauryl ether), poloxamer, or another non-ionic surfactant.

[2] = pH-rate profile: stability of the peptide at pH 4.0-5.5, 45° C.; details: 60 mM acetate buffer, 4.1% mannitol, 0.3% m-cresol
Procedure: This example describes two preferred liquid formulations for pramlintide. Major degradation pathways for the peptide are […] and peptide bond hydrolysis. Therefore, the stability of the peptide was investigated in the pH region of 4.0-5.5 at 45° C. […] The following formulation was developed: […]

[3] = short term mixing compatibility with insulin in the same syringe; details: depending on type of insulin and volume ratio
From the text: The formulations reported in Tables A and B are also compatible when mixed in a syringe with commercially available insulin products. […] As outlined by Brange et al, “Insulin Structure and Stability,” in Stability and Characterization of Protein and Peptide Drugs: Case Histories, 1993, Wang et al. (Ed), Plenum Press, NY, insulin has an isoelectric precipitation zone pH range of 4.5-6.5, within 1 pH unit from isoelectric point. Therefore, while not seeking to be bound by theory, if the pH of the insulin product drops from 7.2±0.2 to pH in the isoelectric precipitation range it may cause insulin to precipitate. Thus, clarity of the solution mixture was used as a criteria for preliminary compatibility studies. The insulin volumes used in this study (Table C) cover the maximum and minimum ranges typical for Type I diabetic patients. The formulation with higher buffer capacity (Table C) forms a clear solution faster than the lower buffer capacity formulation. However, at 0.01% of the peptide label strength both formulations form a clear solution with insulin within approximately one minute. In a syringe, one minute can be considered to be instantaneous mixing. The higher label strength of the peptide (0.015% or higher) results in lower dose volume and may require longer than a minute to form a clear solution. […]

stability of the peptide over the pH range studied [2]: most stable at pH 4.0
time insulin and peptide formulation can remain in the same syringe retaining activity and stability [3]: at least 24 hours
SMILES: CC[C@H](C)[C@H](NC(=O)[C@@H]1CCCN1C(=O)CNC(=O)[C@H](Cc1ccccc1)NC(=O)[C@H](CC(N)=O)NC(=O)[C@H](CC(N)=O)NC(=O)[C@H](CO)NC(=O)[C@H](CO)NC(=O)[C@H](Cc1c[nH]cn1)NC(=O)[C@@H](NC(=O)[C@H](CC(C)C)NC(=O)[C@H](Cc1ccccc1)NC(=O)[C@H](CC(N)=O)NC(=O)[C@H](C)NC(=O)[C@H](CC(C)C)NC(=O)[C@H](CCCNC(=N)N)NC(=O)[C@H](CCC(N)=O)NC(=O)[C@@H](NC(=O)[C@H](C)NC(=O)[C@@H]1CSSC[C@H](NC(=O)[C@@H](N)CCCCN)C(=O)N[C@@H](CC(N)=O)C(=O)N[C@@H]([C@@H](C)O)C(=O)N[C@@H](C)C(=O)N[C@@H]([C@@H](C)O)C(=O)N1)[C@@H](C)O)C(C)C)C(=O)N[C@@H](CC(C)C)C(=O)N1CCC[C@H]1C(=O)N1CCC[C@H]1C(=O)N[C@H](C(=O)N[C@@H](CC(N)=O)C(=O)N[C@H](C(=O)NCC(=O)N[C@@H](CO)C(=O)N[C@@H](CC(N)=O)C(=O)N[C@H](C(=O)N[C@@H](Cc1ccc(O)cc1)C(N)=O)[C@@H](C)O)C(C)C)[C@@H](C)O [pramlintide, ^25,28,29Pro-h-amylin]
tendency to adsorb onto glass [1]: does not have a tendency to adsorb onto the glass
